# Source: PubChem BioAssay (NCI)
#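 In this assay, cells in 96-well plates receive the compound at five concentrations for 48 hours. Endpoints are linearly interpolated between the surrounding concentrations. TGI is the concentration that stops growth completely.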
# Experiments:
# Test in all cases: NCI-60 cell line screen, 48 h
# 786-0 renal = tested on: 786-0 renal
# A498 renal = tested on: A498 renal
# A549 NSCLC = tested on: A549 NSCLC
# ACHN renal = tested on: ACHN renal
# CAKI-1 renal = tested on: CAKI-1 renal
# CCRF-CEM leukemia = tested on: CCRF-CEM leukemia
# COLO 205 colon = tested on: COLO 205 colon
# DLD-1 colon = tested on: DLD-1 colon
# DMS 114 small cell lung = tested on: DMS 114 small cell lung
# DMS 273 small cell lung = tested on: DMS 273 small cell lung
# EKVX NSCLC = tested on: EKVX NSCLC
# HCC-2998 colon = tested on: HCC-2998 colon
# HCT-116 colon = tested on: HCT-116 colon
# HCT-15 colon = tested on: HCT-15 colon
# HL-60(TB) leukemia = tested on: HL-60(TB) leukemia
# HOP-18 NSCLC = tested on: HOP-18 NSCLC
# HOP-62 NSCLC = tested on: HOP-62 NSCLC
# HT29 colon = tested on: HT29 colon
# IGROV1 ovarian = tested on: IGROV1 ovarian
# K-562 leukemia = tested on: K-562 leukemia
# KM12 colon = tested on: KM12 colon
# KM20L2 colon = tested on: KM20L2 colon
# LOX IMVI melanoma = tested on: LOX IMVI melanoma
# LXFL 529 NSCLC = tested on: LXFL 529 NSCLC
# M14 melanoma = tested on: M14 melanoma
# M19-MEL melanoma = tested on: M19-MEL melanoma
# MALME-3M melanoma = tested on: MALME-3M melanoma
# MOLT-4 leukemia = tested on: MOLT-4 leukemia
# NCI-H226 lung = tested on: NCI-H226 lung
# NCI-H23 lung = tested on: NCI-H23 lung
# NCI-H460 lung = tested on: NCI-H460 lung
# NCI-H522 lung = tested on: NCI-H522 lung
# OVCAR-3 ovarian = tested on: OVCAR-3 ovarian
# OVCAR-4 ovarian = tested on: OVCAR-4 ovarian
# OVCAR-5 ovarian = tested on: OVCAR-5 ovarian
# OVCAR-8 ovarian = tested on: OVCAR-8 ovarian
# RPMI-8226 leukemia = tested on: RPMI-8226 leukemia
# RXF 393 renal = tested on: RXF 393 renal
# SF-268 CNS = tested on: SF-268 CNS
# SF-295 CNS = tested on: SF-295 CNS
# SF-539 CNS = tested on: SF-539 CNS
# SK-MEL-2 melanoma = tested on: SK-MEL-2 melanoma
# SK-MEL-28 melanoma = tested on: SK-MEL-28 melanoma
# SK-MEL-5 melanoma = tested on: SK-MEL-5 melanoma
# SK-OV-3 ovarian = tested on: SK-OV-3 ovarian
# SN12C renal = tested on: SN12C renal
# SNB-19 CNS = tested on: SNB-19 CNS
# SNB-75 CNS = tested on: SNB-75 CNS
# SNB-78 CNS = tested on: SNB-78 CNS
# SR leukemia = tested on: SR leukemia
# SW-620 colon = tested on: SW-620 colon
# TK-10 renal = tested on: TK-10 renal
# U251 CNS = tested on: U251 CNS
# UACC-257 melanoma = tested on: UACC-257 melanoma
# UACC-62 melanoma = tested on: UACC-62 melanoma
# UO-31 renal = tested on: UO-31 renal
# XF 498 CNS = tested on: XF 498 CNS
# HOP-92 NSCLC = tested on: HOP-92 NSCLC
smiles,measurement,setting,value
COC(=O)C(Cc1nc2ccc(Cl)cc2[nH]c1=O)/C(=N/O)C(=O)Nc1cccc(Cl)c1C (centres undefined),TGI,786-0 renal,> 100 µM
same,TGI,A498 renal,> 100 µM
same,TGI,A549 NSCLC,> 100 µM
same,TGI,ACHN renal,> 100 µM
same,TGI,CAKI-1 renal,> 100 µM
same,TGI,CCRF-CEM leukemia,> 100 µM
same,TGI,COLO 205 colon,> 100 µM
same,TGI,DLD-1 colon,> 100 µM
same,TGI,DMS 114 small cell lung,> 100 µM
same,TGI,DMS 273 small cell lung,> 100 µM
same,TGI,EKVX NSCLC,> 100 µM
same,TGI,HCC-2998 colon,> 100 µM
same,TGI,HCT-116 colon,> 100 µM
same,TGI,HCT-15 colon,> 100 µM
same,TGI,HL-60(TB) leukemia,> 100 µM
same,TGI,HOP-18 NSCLC,> 100 µM
same,TGI,HOP-62 NSCLC,> 100 µM
same,TGI,HT29 colon,> 100 µM
same,TGI,IGROV1 ovarian,> 100 µM
same,TGI,K-562 leukemia,> 100 µM
same,TGI,KM12 colon,> 100 µM
same,TGI,KM20L2 colon,> 100 µM
same,TGI,LOX IMVI melanoma,> 100 µM
same,TGI,LXFL 529 NSCLC,> 100 µM
same,TGI,M14 melanoma,> 100 µM
same,TGI,M19-MEL melanoma,> 100 µM
same,TGI,MALME-3M melanoma,> 100 µM
same,TGI,MOLT-4 leukemia,> 100 µM
same,TGI,NCI-H226 lung,> 100 µM
same,TGI,NCI-H23 lung,> 100 µM
same,TGI,NCI-H460 lung,> 100 µM
same,TGI,NCI-H522 lung,> 100 µM
same,TGI,OVCAR-3 ovarian,> 100 µM
same,TGI,OVCAR-4 ovarian,> 100 µM
same,TGI,OVCAR-5 ovarian,> 100 µM
same,TGI,OVCAR-8 ovarian,> 100 µM
same,TGI,RPMI-8226 leukemia,> 100 µM
same,TGI,RXF 393 renal,> 100 µM
same,TGI,SF-268 CNS,> 100 µM
same,TGI,SF-295 CNS,> 100 µM
same,TGI,SF-539 CNS,> 100 µM
same,TGI,SK-MEL-2 melanoma,> 100 µM
same,TGI,SK-MEL-28 melanoma,> 100 µM
same,TGI,SK-MEL-5 melanoma,> 100 µM
same,TGI,SK-OV-3 ovarian,> 100 µM
same,TGI,SN12C renal,> 100 µM
same,TGI,SNB-19 CNS,> 100 µM
same,TGI,SNB-75 CNS,> 100 µM
same,TGI,SNB-78 CNS,> 100 µM
same,TGI,SR leukemia,> 100 µM
same,TGI,SW-620 colon,> 100 µM
same,TGI,TK-10 renal,> 100 µM
same,TGI,U251 CNS,> 100 µM
same,TGI,UACC-257 melanoma,> 100 µM
same,TGI,UACC-62 melanoma,> 100 µM
same,TGI,UO-31 renal,> 100 µM
same,TGI,XF 498 CNS,> 100 µM
CCOC(=O)NC(=O)c1cn(-c2ccc(CCOC(=O)NCCCCCCNC(=O)OCCc3ccc(-n4c(=O)[nH]cc(C(=O)NC(=O)OCC)c4=O)cc3)cc2)c(=O)[nH]c1=O,TGI,786-0 renal,> 100 µM
same,TGI,A498 renal,> 100 µM
same,TGI,A549 NSCLC,> 100 µM
same,TGI,ACHN renal,> 92.7 µM
same,TGI,CAKI-1 renal,> 100 µM
same,TGI,CCRF-CEM leukemia,> 100 µM
same,TGI,COLO 205 colon,> 100 µM
same,TGI,DLD-1 colon,> 100 µM
same,TGI,DMS 114 small cell lung,> 100 µM
same,TGI,DMS 273 small cell lung,> 100 µM
same,TGI,EKVX NSCLC,> 100 µM
same,TGI,HCC-2998 colon,> 100 µM
same,TGI,HCT-116 colon,> 100 µM
same,TGI,HCT-15 colon,> 100 µM
same,TGI,HL-60(TB) leukemia,> 100 µM
same,TGI,HOP-18 NSCLC,> 100 µM
same,TGI,HOP-62 NSCLC,72 µM
same,TGI,HOP-92 NSCLC,> 100 µM
same,TGI,HT29 colon,> 100 µM
same,TGI,IGROV1 ovarian,> 100 µM
same,TGI,K-562 leukemia,> 100 µM
same,TGI,KM12 colon,> 100 µM
same,TGI,KM20L2 colon,> 100 µM
same,TGI,LOX IMVI melanoma,> 100 µM
same,TGI,LXFL 529 NSCLC,69.7 µM
same,TGI,M14 melanoma,> 100 µM
same,TGI,M19-MEL melanoma,> 94.8 µM
same,TGI,MALME-3M melanoma,> 91.9 µM
same,TGI,MOLT-4 leukemia,> 100 µM
same,TGI,NCI-H23 lung,> 100 µM
same,TGI,NCI-H460 lung,> 76.8 µM
same,TGI,NCI-H522 lung,68.6 µM
same,TGI,OVCAR-3 ovarian,> 100 µM
same,TGI,OVCAR-4 ovarian,> 100 µM
same,TGI,OVCAR-5 ovarian,> 100 µM
same,TGI,OVCAR-8 ovarian,> 100 µM
same,TGI,RPMI-8226 leukemia,> 100 µM
same,TGI,RXF 393 renal,> 100 µM
same,TGI,SF-268 CNS,> 84.8 µM
same,TGI,SF-295 CNS,> 82.4 µM
same,TGI,SF-539 CNS,54.5 µM
same,TGI,SK-MEL-2 melanoma,> 100 µM
same,TGI,SK-MEL-28 melanoma,> 100 µM
same,TGI,SK-MEL-5 melanoma,> 100 µM
same,TGI,SK-OV-3 ovarian,> 89.8 µM
same,TGI,SN12C renal,> 100 µM
same,TGI,SNB-19 CNS,51.4 µM
same,TGI,SNB-75 CNS,67.3 µM
same,TGI,SNB-78 CNS,98.8 µM
same,TGI,SR leukemia,> 100 µM
same,TGI,SW-620 colon,> 100 µM
same,TGI,TK-10 renal,97.5 µM
same,TGI,U251 CNS,> 74.9 µM
same,TGI,UACC-257 melanoma,> 100 µM
same,TGI,UACC-62 melanoma,60.6 µM
same,TGI,UO-31 renal,> 93.9 µM
same,TGI,XF 498 CNS,> 48.9 µM
